How the values were obtained:
[1] = tested on: KB-8511 (Epidermoid, MDR); assay: Antiproliferative assay, KB-8511; assay type: cell-based, human
Method: The human epidermal (mouth) carcinoma cell line KB-8511 (a P-gp over-expressing cell line derived from the epidermoid (mouth) KB-31 carcinoma cell line) is obtained from Dr. R. M. Baker, Roswell Park Memorial Institute (Buffalo, N.Y., USA) (for description see Akiyama et al., Somat. Cell. Mol. Genetics 11, 117-126 (1985) and Fojo A., et al., Cancer Res. 45, 3002-3007 (1985)) and is cultured as previously described (Meyer, T., et al., Int. J. Cancer 43 851-856 (1989)).
Antiproliferative assays are performed as previously described (Int. J. Cancer 43, 851-6 (1989)). Briefly, cells are seeded at 1.5×10^3 cells/well into 96-well microtiter plates and incubated overnight. Compounds are added in serial dilutions on day 1. The plates are then incubated for an additional 2 to 5 days, allowing for at least one cell doubling (cell line dependent), after which the cells are fixed with 3.3% v/v glutaraldehyde, washed with water and stained with 0.05% w/v methylene blue. After washing, the dye is eluted with 3% v/v HCl and the optical density measured at 665 nm with a SpectraMax 340 (Bucherer, Basel, Switzerland). IC50 values are determined by a computerized system (SoftPro, Bucherer, Basel, Switzerland) using the formula (OD test−OD start)/(OD control−OD start)×100. IC50 is defined as the drug concentration which leads to 50% of cells per well compared to control cultures (100%) at the end of incubation period.

[2] = GLP toxicology study in dogs; assay type: in vivo; settings: dog
Source text: Inclusion Criteria • The following criteria must be met for inclusion into the study: • 1. Male or female patients >18 years of age. • 2. […] At least one measurable, evaluable, or non-evaluable site of disease as defined by Southwestern Oncology Group (SWOG) Solid Tumor Response Criteria including tumor marker value that is above the institutional upper limit of normal. • 4. Women of childbearing potential must have a negative serum β-HCG pregnancy test prior to the initiation of study drug. Male and female patients of reproductive potential must agree to employ an effective method of birth control throughout the study and for up to 3 months following discontinuation of study drug. • 5. World Health Organization (WHO) Performance Status Score of ≦2. • 6. Life expectancy of at least 3 months. • 7. Written informed consent is obtained prior to any screening procedures. Exclusion Criteria • Exclusion from the study is required if any of the following apply: • 1. Female patients who are pregnant or breast-feeding. Postmenopausal women must be amenorrheic for at least 12 months to be considered of non-childbearing potential. • 2. […] This dose is calculated as one-third of the toxic dose low (TDL) in the most sensitive species studied which, for epothilone B, is the dog. […]

SMILES: C/C(=C\c1csc(C)n1)[C@@H]1C[C@@H]2O[C@]2(C)CCC[C@H](C)[C@H](O)[C@@H](C)C(=O)C(C)(C)[C@@H](O)CC(=O)O1 [epothilone B]
- IC50 ([1]; KB-8511, 2 d exposure, mean ± SD, read-out: IC50 for growth inhibition): 0.89 ± 0.47 nM
- relative resistance, IC50 (resistant line)/IC50 (parental line) ([1]; KB-8511 vs parental line): (1.25)
- Mortalities ([2]; 0.1 mg/kg, repeated once 3 weeks later): no mortalities
- toxic dose low (TDL) ([2]; most sensitive species, estimated): ~0.65 mg/kg

From US7875601B2, “Cancer treatment with epothilones” (Novartis AG, priority 1998, dated 2011)
